± gives the expanded uncertainty stated by the source.
Test: molar heat capacity at constant volume
Conditions: Fluid (supercritical or subcritical phases), Vacuum adiabatic calorimetry

CCC(C)O (stereo unspecified) [butan-2-ol]
Conditions | molar heat capacity at constant volume [J/K/mol]
538.48 K, Mass density=279.19 kg/m3 | 275.36 ± 2.7
538.48 K, Mass density=284.93 kg/m3 | 266.32 ± 2.7
538.48 K, Mass density=286.65 kg/m3 | 296.63 ± 3
538.48 K, Mass density=301.19 kg/m3 | 256.46 ± 3
538.66 K, Mass density=117 kg/m3 | 318.5 ± 4.1
538.66 K, Mass density=284.93 kg/m3 | 265.65 ± 2.7
538.66 K, Mass density=286.65 kg/m3 | 296.86 ± 3
538.66 K, Mass density=301.19 kg/m3 | 250.53 ± 2.2
538.84 K, Mass density=117 kg/m3 | 306.2 ± 4.6
538.84 K, Mass density=286.65 kg/m3 | 297.08 ± 3
539.03 K, Mass density=286.65 kg/m3 | 296.34 ± 3
539.57 K, Mass density=286.65 kg/m3 | 285.07 ± 2.9
539.76 K, Mass density=279.19 kg/m3 | 283.52 ± 2.9
539.76 K, Mass density=286.65 kg/m3 | 288.78 ± 2.9
539.94 K, Mass density=184.89 kg/m3 | 261.35 ± 2.7
539.94 K, Mass density=276.45 kg/m3 | 295.89 ± 3
539.94 K, Mass density=279.19 kg/m3 | 284.48 ± 2.9
539.94 K, Mass density=286.65 kg/m3 | 282.33 ± 2.9
540.12 K, Mass density=184.89 kg/m3 | 273.06 ± 2.7
540.12 K, Mass density=276.45 kg/m3 | 293.89 ± 3
540.12 K, Mass density=279.19 kg/m3 | 283.74 ± 2.9
540.12 K, Mass density=286.65 kg/m3 | 282.03 ± 2.8
540.12 K, Mass density=403.55 kg/m3 | 223.85 ± 2.2
540.3 K, Mass density=184.89 kg/m3 | 272.25 ± 2.7
540.3 K, Mass density=276.45 kg/m3 | 297.6 ± 3
540.3 K, Mass density=286.65 kg/m3 | 280.4 ± 2.8
540.3 K, Mass density=403.55 kg/m3 | 225.33 ± 2.2
540.48 K, Mass density=184.89 kg/m3 | 275.73 ± 2.8
540.48 K, Mass density=276.45 kg/m3 | 293.15 ± 3
540.48 K, Mass density=403.55 kg/m3 | 226.81 ± 2.2
540.67 K, Mass density=184.89 kg/m3 | 280.18 ± 2.8
540.67 K, Mass density=279.19 kg/m3 | 274.92 ± 2.7
540.67 K, Mass density=403.55 kg/m3 | 223.85 ± 2.2
540.85 K, Mass density=184.89 kg/m3 | 275.21 ± 2.8
540.85 K, Mass density=279.19 kg/m3 | 281.29 ± 2.8
540.85 K, Mass density=403.55 kg/m3 | 223.11 ± 2.2
541.03 K, Mass density=279.19 kg/m3 | 276.47 ± 2.8
541.03 K, Mass density=403.55 kg/m3 | 220.88 ± 2.2
541.21 K, Mass density=279.19 kg/m3 | 278.4 ± 2.8
541.4 K, Mass density=279.19 kg/m3 | 276.92 ± 2.8
542.67 K, Mass density=301.19 kg/m3 | 240.15 ± 2.2
542.85 K, Mass density=301.19 kg/m3 | 240.9 ± 2.2
543.03 K, Mass density=301.19 kg/m3 | 240.15 ± 2.2
547.21 K, Mass density=286.65 kg/m3 | 273.21 ± 2.7
547.39 K, Mass density=286.65 kg/m3 | 272.69 ± 2.7
547.57 K, Mass density=284.93 kg/m3 | 247.34 ± 2.5
547.57 K, Mass density=286.65 kg/m3 | 276.33 ± 2.8
547.75 K, Mass density=284.93 kg/m3 | 250.31 ± 2.5
547.75 K, Mass density=286.65 kg/m3 | 276.62 ± 2.8
547.93 K, Mass density=284.93 kg/m3 | 248.31 ± 2.5
547.93 K, Mass density=286.65 kg/m3 | 276.1 ± 2.8
548.11 K, Mass density=284.93 kg/m3 | 247.79 ± 2.5
548.11 K, Mass density=286.65 kg/m3 | 276.33 ± 2.8
548.11 K, Mass density=347.06 kg/m3 | 235.71 ± 2.2
548.29 K, Mass density=284.93 kg/m3 | 248.68 ± 2.5
548.29 K, Mass density=286.65 kg/m3 | 278.03 ± 2.8
548.29 K, Mass density=347.06 kg/m3 | 236.45 ± 2.2
548.47 K, Mass density=284.93 kg/m3 | 248.31 ± 2.5
548.47 K, Mass density=286.65 kg/m3 | 278.55 ± 2.8
548.47 K, Mass density=347.06 kg/m3 | 235.71 ± 2.2
548.65 K, Mass density=286.65 kg/m3 | 278.03 ± 2.8
548.65 K, Mass density=347.06 kg/m3 | 234.22 ± 2.2
550.28 K, Mass density=284.93 kg/m3 | 236.74 ± 2.4
550.46 K, Mass density=284.93 kg/m3 | 238.08 ± 2.4
550.46 K, Mass density=403.55 kg/m3 | 218.66 ± 2.2
550.64 K, Mass density=403.55 kg/m3 | 217.92 ± 2.2
550.82 K, Mass density=284.93 kg/m3 | 236.52 ± 2.4
550.82 K, Mass density=403.55 kg/m3 | 220.88 ± 2.2
551 K, Mass density=284.93 kg/m3 | 236.3 ± 2.4
551 K, Mass density=403.55 kg/m3 | 220.88 ± 2.2
551.18 K, Mass density=403.55 kg/m3 | 220.14 ± 2.2
551.36 K, Mass density=403.55 kg/m3 | 220.88 ± 2.2
557.3 K, Mass density=286.65 kg/m3 | 252.16 ± 2.5
557.3 K, Mass density=347.06 kg/m3 | 220.14 ± 2.2
557.48 K, Mass density=286.65 kg/m3 | 253.13 ± 2.5
557.48 K, Mass density=347.06 kg/m3 | 220.88 ± 2.2
557.66 K, Mass density=286.65 kg/m3 | 251.94 ± 2.5
557.66 K, Mass density=347.06 kg/m3 | 217.92 ± 2.2
557.84 K, Mass density=286.65 kg/m3 | 252.16 ± 2.5
557.84 K, Mass density=347.06 kg/m3 | 220.14 ± 2.2
558.02 K, Mass density=286.65 kg/m3 | 253.64 ± 2.6
558.2 K, Mass density=284.93 kg/m3 | 236.45 ± 2.4
558.2 K, Mass density=286.65 kg/m3 | 258.98 ± 2.6
558.38 K, Mass density=284.93 kg/m3 | 243.27 ± 2.4
558.38 K, Mass density=286.65 kg/m3 | 261.43 ± 2.7
558.56 K, Mass density=284.93 kg/m3 | 241.49 ± 2.4
558.56 K, Mass density=286.65 kg/m3 | 257.05 ± 2.6
558.74 K, Mass density=284.93 kg/m3 | 241.71 ± 2.4
558.74 K, Mass density=286.65 kg/m3 | 258.02 ± 2.6
558.92 K, Mass density=284.93 kg/m3 | 246.38 ± 2.5
558.92 K, Mass density=286.65 kg/m3 | 259.28 ± 2.6
559.09 K, Mass density=286.65 kg/m3 | 264.39 ± 2.7
559.27 K, Mass density=286.65 kg/m3 | 254.83 ± 2.6
559.45 K, Mass density=286.65 kg/m3 | 252.68 ± 2.5
559.63 K, Mass density=286.65 kg/m3 | 264.39 ± 2.7
560.64 K, Mass density=284.93 kg/m3 | 246.75 ± 2.5
560.89 K, Mass density=286.65 kg/m3 | 262.17 ± 2.7
561.24 K, Mass density=286.65 kg/m3 | 254.83 ± 2.6
561.42 K, Mass density=286.65 kg/m3 | 257.28 ± 2.6
561.6 K, Mass density=286.65 kg/m3 | 257.79 ± 2.6
561.78 K, Mass density=286.65 kg/m3 | 256.83 ± 2.6
561.96 K, Mass density=286.65 kg/m3 | 257.57 ± 2.6
562.14 K, Mass density=286.65 kg/m3 | 257.05 ± 2.6
562.32 K, Mass density=286.65 kg/m3 | 258.98 ± 2.6
562.49 K, Mass density=286.65 kg/m3 | 254.61 ± 2.6
562.67 K, Mass density=286.65 kg/m3 | 256.61 ± 2.6

From the NIST ThermoML archive (doi:10.1016/j.tca.2013.08.031)
